{"source": "patent US10927389B2", "about": "“Method of producing chemical substance by continuous fermentation” (Toray Industries, Inc., priority 2014, dated 2021)", "key": {"[1]": {"system": "Saccharomyces cerevisiae NBRC 10505 strain", "assay": "Vanillin resistance test", "type": "cell-based", "details": "strain NBRC 10505; vanillin 1 g/L in YPAD medium, 30° C., 40 hours; absorbance at 600 nm with vanillin ÷ without ×100", "quoted_text": "(§2) The Saccharomyces cerevisiae NBRC 10505 strain was inoculated using a platinum loop to 20-ml test tubes each containing 5 ml of YPAD medium, and then cultured with shaking at 30° C. overnight (preculture). The YPAD medium had the following composition: 1% (w/v) yeast extract, 2% (w/v) bactopeptone, 2% (w/v) glucose, and 0.04% (w/v) adenine. A vanillin concentrate (200 g/L in DMSO) was prepared, and 25 μL of the vanillin concentrate was added to 5 ml of YPAD medium so that the final concentration became 1 g/L. To provide vanillin-free YPAD medium, 25 μl of DMSO alone was added to YPAD medium. The preculture liquid was inoculated to the YPAD medium (with vanillin) and the vanillin-free YPAD medium such that OD became 0.2, and culture was performed at 30° C. for 40 hours. After the culture, OD 600 nm of the culture liquid of each strain was measured, and a value was calculated according to Equation (6). Absorbance at 600 nm of YPAD medium (with vanillin)÷absorbance at 600 nm of YPAD medium×100 (6)."}, "[2]": {"system": "Candida pignaliae NBRC 10307 strain", "assay": "Vanillin resistance test", "type": "cell-based", "details": "strain NBRC 10307; vanillin 1 g/L in YPAD medium, 30° C., 40 hours; absorbance at 600 nm with vanillin ÷ without ×100", "quoted_text": "(§3) The YPAD medium had the following composition: 1% (w/v) yeast extract, 2% (w/v) bactopeptone, 2% (w/v) glucose, and 0.04% (w/v) adenine. A vanillin concentrate (200 g/L in DMSO) was prepared, and 25 μL of the vanillin concentrate was added to 5 ml of YPAD medium so that the final concentration became 1 g/L. To provide vanillin-free YPAD medium, 25 μl of DMSO alone was added to YPAD medium. The preculture liquid was inoculated to the YPAD medium (with vanillin) and the vanillin-free YPAD medium such that OD became 0.2, and culture was performed at 30° C. for 40 hours. After the culture, OD 600 nm of the culture liquid of each strain was measured, and a value was calculated according to Equation (6). Absorbance at 600 nm of YPAD medium (with vanillin)÷absorbance at 600 nm of YPAD medium×100 (6)."}, "[3]": {"system": "Pichia mexicana NBRC 10320 strain", "assay": "Vanillin resistance test", "type": "cell-based", "details": "strain NBRC 10320; vanillin 1 g/L in YPAD medium, 30° C., 40 hours; absorbance at 600 nm with vanillin ÷ without ×100", "quoted_text": "The Pichia mexicana NBRC 10320 strain was tested by the same method as in Reference Example 5, and values were calculated according to Equation (6) and Equation (7) (Table 1)."}, "[4]": {"system": "Saccharomyces cerevisiae NBRC 2260 strain", "assay": "Vanillin resistance test", "type": "cell-based", "details": "strain NBRC 2260; vanillin 1 g/L in YPAD medium, 30° C., 40 hours; absorbance at 600 nm with vanillin ÷ without ×100", "quoted_text": "as §2"}, "[5]": {"system": "Kluyveromyces marxianus NBRC 272 strain", "assay": "Vanillin resistance test", "type": "cell-based", "details": "strain NBRC 272; vanillin 1 g/L in YPAD medium, 30° C., 40 hours; absorbance at 600 nm with vanillin ÷ without ×100", "quoted_text": "as §3\nThe Kluyveromyces marxianus NBRC 272 strain was tested by the same method as in Reference Example 5, and values were calculated according to Equation (6) and Equation (7) (Table 1)."}, "[6]": {"system": "Candida tropicalis NBRC 199 strain", "assay": "Vanillin resistance test", "type": "cell-based", "details": "strain NBRC 199; vanillin 1 g/L in YPAD medium, 30° C., 40 hours; absorbance at 600 nm with vanillin ÷ without ×100"}, "[7]": {"system": "Arxula adeninivorans NBRC 10858 strain", "assay": "Vanillin resistance test", "type": "cell-based", "details": "strain NBRC 10858; vanillin 1 g/L in YPAD medium, 30° C., 40 hours; absorbance at 600 nm with vanillin ÷ without ×100", "quoted_text": "as §2\nThe Arxula adeninivorans NBRC 10858 strain was tested by the same method as in Reference Example 5, and values were calculated according to Equation (6) and Equation (7) (Table 1)."}, "[8]": {"system": "Lindnera fabianii NBRC 1253 strain", "assay": "Vanillin resistance test", "type": "cell-based", "details": "strain NBRC 1253; vanillin 1 g/L in YPAD medium, 30° C., 40 hours; absorbance at 600 nm with vanillin ÷ without ×100", "quoted_text": "The Lindnera fabianii NBRC 1253 strain was tested by the same method as in Reference Example 5, and a value was calculated according to Equation (6) and Equation (7) (Table 1)."}, "[9]": {"system": "Candida methanosorbosa BCRC 21489 strain", "assay": "Vanillin resistance test", "type": "cell-based", "details": "strain BCRC 21489; vanillin 1 g/L in YPAD medium, 30° C., 40 hours; absorbance at 600 nm with vanillin ÷ without ×100", "quoted_text": "The Candida methanosorbosa BCRC 21489 strain was tested by the same method as in Reference Example 5, and values were calculated according to Equation (6) and Equation (7) (Table 1)."}, "[10]": {"system": "Pichia stipitis BCRC 21777 strain", "assay": "Vanillin resistance test", "type": "cell-based", "details": "strain BCRC 21777; vanillin 1 g/L in YPAD medium, 30° C., 40 hours; absorbance at 600 nm with vanillin ÷ without ×100", "quoted_text": "as §3\nThe Pichia stipitis BCRC 21777 strain was tested by the same method as in Reference Example 5, and values were calculated according to Equation (6) and Equation (7) (Table 1)."}, "[11]": {"system": "Candida boidinii BCRC 22528 strain", "assay": "Vanillin resistance test", "type": "cell-based", "details": "strain BCRC 22528; vanillin 1 g/L in YPAD medium, 30° C., 40 hours; absorbance at 600 nm with vanillin ÷ without ×100", "quoted_text": "The Candida boidinii BCRC 22528 strain was tested by the same method as in Reference Example 5, and values were calculated according to Equation (6) and Equation (7) (Table 1)."}, "[12]": {"system": "Saccharomyces cerevisiae NITE BP-1087 strain", "assay": "Vanillin resistance test", "type": "cell-based", "details": "strain BP-1087; vanillin 1 g/L in YPAD medium, 30° C., 40 hours; absorbance at 600 nm with vanillin ÷ without ×100", "quoted_text": "as §2"}, "[13]": {"system": "Saccharomyces cerevisiae NITE BP-1088 strain", "assay": "Vanillin resistance test", "type": "cell-based", "details": "strain BP-1088; vanillin 1 g/L in YPAD medium, 30° C., 40 hours; absorbance at 600 nm with vanillin ÷ without ×100", "quoted_text": "as §2"}, "[14]": {"system": "Saccharomyces cerevisiae NITE BP-1089 strain", "assay": "Vanillin resistance test", "type": "cell-based", "details": "strain BP-1089; vanillin 1 g/L in YPAD medium, 30° C., 40 hours; absorbance at 600 nm with vanillin ÷ without ×100", "quoted_text": "as §2"}, "[15]": {"system": "Saccharomyces cerevisiae NBRC 10505/ΔPDC1::LDH strain", "details": "strain NBRC 10505 ΔPDC1::LDH; vanillin 1 g/L in YPAD medium, 30° C., 40 hours; absorbance at 600 nm with vanillin ÷ without ×100", "quoted_text": "as §2"}, "[16]": {"system": "Saccharomyces cerevisiae NBRC 2260/ΔPDC1::LDH strain", "details": "strain NBRC 2260 ΔPDC1::LDH; vanillin 1 g/L in YPAD medium, 30° C., 40 hours; absorbance at 600 nm with vanillin ÷ without ×100", "quoted_text": "as §2"}, "[17]": {"system": "Arxula adeninivorans NBRC 10858 strain", "assay": "Acetone resistance test", "type": "cell-based", "details": "strain NBRC 10858; 4% (v/v) acetone in YPAD medium, 30° C., 40 hours; absorbance at 600 nm with acetone ÷ without ×100", "protocol": "(§1) To 5 ml of YPAD medium, 200 μL of acetone was added so that the final concentration became 4% (v/v). […] Absorbance at 600 nm of YPAD medium (with acetone)÷absorbance at 600 nm of YPAD medium×100 (7)"}, "[18]": {"system": "Candida boidinii BCRC 22528 strain", "assay": "Acetone resistance test", "type": "cell-based", "details": "strain BCRC 22528; 4% (v/v) acetone in YPAD medium, 30° C., 40 hours; absorbance at 600 nm with acetone ÷ without ×100", "protocol": "as §1"}, "[19]": {"system": "Candida methanosorbosa BCRC 21489 strain", "assay": "Acetone resistance test", "type": "cell-based", "details": "strain BCRC 21489; 4% (v/v) acetone in YPAD medium, 30° C., 40 hours; absorbance at 600 nm with acetone ÷ without ×100", "protocol": "as §1"}, "[20]": {"system": "Candida pignaliae NBRC 10307 strain", "assay": "Acetone resistance test", "type": "cell-based", "details": "strain NBRC 10307; 4% (v/v) acetone in YPAD medium, 30° C., 40 hours; absorbance at 600 nm with acetone ÷ without ×100", "protocol": "as §1"}, "[21]": {"system": "Candida tropicalis NBRC 199 strain", "assay": "Acetone resistance test", "type": "cell-based", "details": "strain NBRC 199; 4% (v/v) acetone in YPAD medium, 30° C., 40 hours; absorbance at 600 nm with acetone ÷ without ×100", "protocol": "as §1"}, "[22]": {"system": "Kluyveromyces marxianus NBRC 272 strain", "assay": "Acetone resistance test", "type": "cell-based", "details": "strain NBRC 272; 4% (v/v) acetone in YPAD medium, 30° C., 40 hours; absorbance at 600 nm with acetone ÷ without ×100", "protocol": "as §1"}, "[23]": {"system": "Lindnera fabianii NBRC 1253 strain", "assay": "Acetone resistance test", "type": "cell-based", "details": "strain NBRC 1253; 4% (v/v) acetone in YPAD medium, 30° C., 40 hours; absorbance at 600 nm with acetone ÷ without ×100", "protocol": "as §1"}, "[24]": {"system": "Pichia stipitis BCRC 21777 strain", "assay": "Acetone resistance test", "type": "cell-based", "details": "strain BCRC 21777; 4% (v/v) acetone in YPAD medium, 30° C., 40 hours; absorbance at 600 nm with acetone ÷ without ×100", "protocol": "as §1"}, "[25]": {"system": "Saccharomyces cerevisiae NBRC 10505 strain", "assay": "Acetone resistance test", "type": "cell-based", "details": "strain NBRC 10505; 4% (v/v) acetone in YPAD medium, 30° C., 40 hours; absorbance at 600 nm with acetone ÷ without ×100", "protocol": "as §1"}, "[26]": {"system": "Saccharomyces cerevisiae NBRC 10505/ΔPDC1::LDH strain", "assay": "Acetone resistance test", "type": "cell-based", "details": "strain NBRC 10505 ΔPDC1::LDH; 4% (v/v) acetone in YPAD medium, 30° C., 40 hours; absorbance at 600 nm with acetone ÷ without ×100", "protocol": "as §1"}, "[27]": {"system": "Saccharomyces cerevisiae NBRC 2260 strain", "assay": "Acetone resistance test", "type": "cell-based", "details": "strain NBRC 2260; 4% (v/v) acetone in YPAD medium, 30° C., 40 hours; absorbance at 600 nm with acetone ÷ without ×100", "protocol": "as §1"}, "[28]": {"system": "Saccharomyces cerevisiae NBRC 2260/ΔPDC1::LDH strain", "assay": "Acetone resistance test", "type": "cell-based", "details": "strain NBRC 2260 ΔPDC1::LDH; 4% (v/v) acetone in YPAD medium, 30° C., 40 hours; absorbance at 600 nm with acetone ÷ without ×100", "protocol": "as §1"}, "[29]": {"system": "Saccharomyces cerevisiae NITE BP-1087 strain", "assay": "Acetone resistance test", "type": "cell-based", "details": "strain BP-1087; 4% (v/v) acetone in YPAD medium, 30° C., 40 hours; absorbance at 600 nm with acetone ÷ without ×100", "protocol": "as §1"}, "[30]": {"system": "Saccharomyces cerevisiae NITE BP-1088 strain", "assay": "Acetone resistance test", "type": "cell-based", "details": "strain BP-1088; 4% (v/v) acetone in YPAD medium, 30° C., 40 hours; absorbance at 600 nm with acetone ÷ without ×100", "protocol": "as §1"}, "[31]": {"system": "Saccharomyces cerevisiae NITE BP-1089 strain", "assay": "Acetone resistance test", "type": "cell-based", "details": "strain BP-1089; 4% (v/v) acetone in YPAD medium, 30° C., 40 hours; absorbance at 600 nm with acetone ÷ without ×100", "protocol": "as §1"}, "[32]": {"system": "Pichia mexicana NBRC 10320 strain", "assay": "Acetone resistance test", "type": "cell-based", "details": "strain NBRC 10320; 4% (v/v) acetone in YPAD medium, 30° C., 40 hours; absorbance at 600 nm with acetone ÷ without ×100", "protocol": "as §1\nAs a result, the Pichia mexicana NBRC 10320 strain was found not to be a vanillin-resistant yeast, but found to be an acetone-resistant yeast."}}}
{"smiles": "COc1cc(C=O)ccc1O", "note": "[Vanillin, vanillin]", "values": [{"measurement": "Vanillin resistance test result", "setting": "[1]", "value": 6.8}, {"measurement": "Vanillin resistance test result", "setting": "[2]", "value": 1.9}, {"measurement": "Vanillin resistance test result", "setting": "[3]", "value": 11}, {"measurement": "Vanillin resistance test result", "setting": "[4]", "value": 83}, {"measurement": "Vanillin resistance test result", "setting": "[5]", "value": 100}, {"measurement": "Vanillin resistance test result", "setting": "[6]", "value": 82}, {"measurement": "Vanillin resistance test result", "setting": "[7]", "value": 84}, {"measurement": "Vanillin resistance test result", "setting": "[8]", "value": 95}, {"measurement": "Vanillin resistance test result", "setting": "[9]", "value": 54}, {"measurement": "Vanillin resistance test result", "setting": "[10]", "value": 22}, {"measurement": "Vanillin resistance test result", "setting": "[11]", "value": 66}, {"measurement": "Vanillin resistance test result", "setting": "[12]", "value": 9.2}, {"measurement": "Vanillin resistance test result", "setting": "[13]", "value": 8.5}, {"measurement": "Vanillin resistance test result", "setting": "[14]", "value": 7.8}, {"measurement": "Vanillin resistance test result", "setting": "[15]", "value": 6.2}, {"measurement": "Vanillin resistance test result", "setting": "[16]", "value": 82}]}
{"smiles": "CC(C)=O", "note": "[Acetone, acetone]", "values": [{"measurement": "Acetone resistance test result", "setting": "[17]", "value": 22}, {"measurement": "Acetone resistance test result", "setting": "[18]", "value": 49}, {"measurement": "Acetone resistance test result", "setting": "[19]", "value": 74}, {"measurement": "Acetone resistance test result", "setting": "[20]", "value": 1.3}, {"measurement": "Acetone resistance test result", "setting": "[21]", "value": 100}, {"measurement": "Acetone resistance test result", "setting": "[22]", "value": 87}, {"measurement": "Acetone resistance test result", "setting": "[23]", "value": 111}, {"measurement": "Acetone resistance test result", "setting": "[24]", "value": 1.8}, {"measurement": "Acetone resistance test result", "setting": "[25]", "value": 8.8}, {"measurement": "Acetone resistance test result", "setting": "[26]", "value": 8}, {"measurement": "Acetone resistance test result", "setting": "[27]", "value": 86}, {"measurement": "Acetone resistance test result", "setting": "[28]", "value": 84}, {"measurement": "Acetone resistance test result", "setting": "[29]", "value": 10}, {"measurement": "Acetone resistance test result", "setting": "[30]", "value": 7.5}, {"measurement": "Acetone resistance test result", "setting": "[31]", "value": 7.2}, {"measurement": "Acetone resistance test result", "setting": "[32]", "value": 100}]}
